Assay results: patent US6962912B2, “Substituted pyrazolo[4,3-e]diazepines, pharmaceutical compositions containing them, use as medicinal products and processes for preparing them” (Warner-Lambert LLC, priority 2000, dated 2005)

Experiments:
PDE4 = assay: Inhibition of PDE4 (cytosolic enzyme preparation from U937 line), compared with rolipram; format: biochemical, human; details: PDE4 enzyme preparation obtained from the U937 line
production of TNFα = assay: in vivo TNFα model in Wistar rats (LPS-induced); details: oral administration 30 min before i.p. LPS; plasma 90 min after LPS; male Wistar rats
From the text: TNFα is a cytokine which plays a central role in the mechanisms of inflammation. Its production can be induced by an injection of lipopolysaccharide (LPS). It has been shown that the increase in intracellular cAMP, produced in particular by PDE4 inhibitors, decreases the production of TNFα in in vitro and in vivo models. It is thus a matter here of quantifying in vivo the anti-inflammatory potential of the compounds of the invention, administered orally (p.o.) by measuring the inhibition of the production of TNFα in the plasma of rats, these rats having received an intraperitoneal (i.p.) injection of lipopolysaccharide (LPS). The treatment with the compounds of the invention or the vehicle are [sic] administered orally to male Wistar rats, 30 min before the injection of LPS. The rats are sacrificed 90 min after the stimulation with LPS, the blood is collected onto EDTA and the TNFα concentration is measured in each plasma sample. […] References • Chen, Y. L., Le Vraux, V., Giroud, J. P. and Chauvelot-Moachon L. (1994). Anti-tumor necrosis factor properties of non-peptide drugs in acute-phase responses. […] Int. J. Immunopharmacol., 16 (10), 805-816. Model of Eosinophilia in Rats

Row | SMILES | IC50 (PDE4) | melting point | inhibition of the production of TNFα in the plasma of rats (production of TNFα)
1 | CCC(C)c1nn(CC)c2c1N=C(c1ccccc1)CNC2=O (racemic) [Example 68, (±)3-sec-Butyl-1-ethyl-5-phenyl-6,7-dihydro-1H-pyrazolo[4,3-e][1,4]diazepin-8-one] | 6.2 nM | – | excellent activity
2 | CCC(C)c1nn(CC)c2c1N=C(c1ccncc1)CNC2=O (racemic) [Example 69, (±)3-sec-Butyl-1-ethyl-5-pyrid-4-yl-6,7-dihydro-1H-pyrazolo[4,3-e][1,4]diazepin-8-one] | 13 nM | 86 to 88.5 °C | excellent activity
3 | CCCn1nc(C(C)CC)c2c1C(=O)NCC(c1ccncc1)=N2 (racemic) [Example 71, (±)3-sec-Butyl-1-propyl-5-pyrid-4-yl-6,7-dihydro-1H-pyrazolo[4,3-e][1,4]diazepin-8-one] | 35 nM | 110 °C | excellent activity
4 | CCn1nc(C)c2c1C(=O)NCC(C(C)(C)C)N2 (centres unmarked) [5-tert-Butyl-1-ethyl-3-methyl-4,5,6,7-tetrahydro-1H-pyrazolo[4,3-e][1,4]diazepin-8-one] | – | – | excellent activity
5 | CCn1nc(C)c2c1C(=O)NCC(c1ccc(OC)cc1)=N2 [Example 6, 1-Ethyl-5-(4-methoxyphenyl)-3-methyl-6,7-dihydro-1H-pyrazolo[4,3-e][1,4]diazepin-8-one] | 420 nM | 178 °C | excellent activity
6 | CCn1nc(C)c2c1C(=O)NCC(c1ccc(N)cc1)=N2 [Example 12, 5-(4-Aminophenyl)-1-ethyl-3-methyl-6,7-dihydro-1H-pyrazolo-[4,3-e][1,4]diazepin-8-one] | 100 nM | 212 °C | excellent activity
7 | CCCn1nc(C)c2c1C(=O)NCC(c1ccccc1)=N2 [Example 15, 3-Methyl-5-phenyl-1-propyl-6,7-dihydro-1H-pyrazolo-[4,3-e][1,4]diazepin-8-one] | 520 nM | 171 °C | excellent activity
8 | Cc1nn(CCO)c2c1N=C(c1ccccc1)CNC2=O [Example 16, 1-(2-Hydroxyethyl)-3-methyl-5-phenyl-6,7-dihydro-1H-pyrazolo[4,3-e][1,4]diazepin-8-one] | 420 nM | 75 °C | excellent activity
9 | CCn1nc(C)c2c1C(=O)NCC(c1ccc(C)cc1)=N2 [Example 23, 1-Ethyl-3-methyl-5-p-tolyl-6,7-dihydro-1H-pyrazolo[4,3-e][1,4]diazepin-8-one] | 42 nM | 185 °C | excellent activity
10 | CCn1nc(C)c2c1C(=O)NCC(c1cccc(N)c1)=N2 [Example 24, 5-(3-Aminophenyl)-1-ethyl-3-methyl-6,7-dihydro-1H-pyrazolo[4,3-e][1,4]diazepin-8-one] | 78 nM | 80 °C | excellent activity
11 | CCn1nc(C)c2c1C(=O)NCC(c1ccc(O)cc1)=N2 [Example 28, 1-Ethyl-5-(4-hydroxyphenyl)-3-methyl-6,7-dihydro-1H-pyrazolo[4,3-e][1,4]diazepin-8-one] | 90 nM | 250 °C | excellent activity
12 | CCn1nc(C)c2c1C(=O)NCC(C1CCCCC1)=N2 [Example 31, 5-Cyclohexyl-1-ethyl-3-methyl-6,7-dihydro-1H-pyrazolo[4,3-e][1,4]diazepin-8-one] | 190 nM | 50 °C | excellent activity
13 | CCn1nc(C(C)C)c2c1C(=O)NCC(c1ccc(OC)cc1OC)=N2 [Example 39, 5-(2,4-Dimethoxyphenyl)-1-ethyl-3-isopropyl-6,7-dihydro-1H-pyrazolo[4,3-e][1,4]diazepin-8-one] | 9.1 nM | – | excellent activity
14 | CCCn1nc(C(C)C)c2c1C(=O)NCC(C(C)(C)C)=N2 [Example 40, 5-tert-Butyl-3-isopropyl-1-propyl-6,7-dihydro-1H-pyrazolo[4,3-e][1,4]diazepin-8-one] | 8.2 nM | – | excellent activity
15 | CCCn1nc(C(C)C)c2c1C(=O)NCC(c1ccc(C)cc1)=N2 [Example 41, 3-Isopropyl-1-propyl-5-p-tolyl-6,7-dihydro-1H-pyrazolo[4,3-e][1,4]diazepin-8-one] | 11 nM | – | excellent activity
16 | CCCn1nc(C(C)C)c2c1C(=O)NCC(c1ccc(C#N)cc1)=N2 [Example 42, 4-(3-Isopropyl-8-oxo-1-propyl-1,6,7,8-tetrahydro-pyrazolo[4,3-e][1,4]diazepin-5-yl)benzonitrile] | 10 nM | – | excellent activity

Continued, in another order:

Row | IC50 (PDE4) | melting point | SMILES | inhibition of the production of TNFα in the plasma of rats (production of TNFα)
17 | 4.9 nM | 157.2 °C | CCn1nc(C(C)C)c2c1C(=O)NCC(c1ccccc1)=N2 [Example 1, 1-Ethyl-3-isopropyl-5-phenyl-6,7-dihydro-1H-pyrazolo[4,3-e][1,4]diazepin-8-one] | excellent activity
18 | 0.98 nM | 164 °C | CCn1nc(C(C)C)c2c1C(=S)NCC(c1ccccc1)=N2 [Example 2, 1-Ethyl-3-isopropyl-5-phenyl-6,7-dihydro-1H-pyrazolo[4,3-e][1,4]diazepin-8-thione] | excellent activity
19 | 0.12 nM | 222 °C | CCn1nc(C(C)C)c2c1C(=NC#N)NCC(c1ccccc1)=N2 [Example 3, 1-Ethyl-3-isopropyl-5-phenyl-6,7-dihydro-1H-pyrazolo[4,3-e][1,4]diazepin-8-ylidenecyanamide] | excellent activity
20 | 5.9 nM | 203.5 °C | CCn1nc(C)c2c1C(=S)NCC(c1ccccc1)=N2 [Example 17, 1-Ethyl-3-methyl-5-phenyl-6,7-dihydro-1H-pyrazolo[4,3-e][1,4]diazepin-8-thione] | excellent activity
21 | 2.6 nM | 160 °C | CCn1nc(C(C)(C)C)c2c1C(=O)NCC(c1ccccc1)=N2 [Example 21, 3-tert-Butyl-1-ethyl-5-phenyl-6,7-dihydro-1H-pyrazolo[4,3-e][1,4]diazepin-8-one] | excellent activity
22 | 2.4 nM | 230 °C | CCn1nc(C(C)(C)C)c2c1C(=S)NCC(c1ccccc1)=N2 [Example 25, 3-tert-Butyl-1-ethyl-5-phenyl-6,7-dihydro-1H-pyrazolo[4,3-e][1,4]diazepin-8-thione] | excellent activity
23 | 5.6 nM | 189 °C | CCn1nc(C(C)(C)C)c2c1C(=O)NCC(c1ccc(N)cc1)=N2 [Example 26, 5-(4-Aminophenyl)-3-tert-butyl-1-ethyl-6,7-dihydro-1H-pyrazolo[4,3-e][1,4]diazepin-8-one] | excellent activity
24 | 0.7 nM | – | CCn1nc(C(C)C)c2c1C(=O)NCC(C(C)(C)C)=N2 [Example 35, 5-tert-Butyl-1-ethyl-3-isopropyl-6,7-dihydro-1H-pyrazolo[4,3-e][1,4]diazepin-8-one] | excellent activity
25 | 0.39 nM | – | CCn1nc(C(C)C)c2c1C(=O)NCC(c1ccc(C)cc1)=N2 [Example 36, 1-Ethyl-3-isopropyl-5-p-tolyl-6,7-dihydro-1H-pyrazolo[4,3-e][1,4]diazepin-8-one] | excellent activity
26 | 0.97 nM | – | CCn1nc(C(C)C)c2c1C(=O)NCC(c1ccc(C#N)cc1)=N2 [Example 37, 4-(1-Ethyl-3-isopropyl-8-oxo-1,6,7,8-tetrahydro-pyrazolo[4,3-e][1,4]diazepin-5-yl)benzonitrile] | excellent activity
27 | 2.6 nM | – | CCn1nc(C(C)(C)C)c2c1C(=O)NCC(c1ccc(C)cc1)=N2 [Example 45, 3-tert-Butyl-1-ethyl-5-p-tolyl-6,7-dihydro-1H-pyrazolo[4,3-e][1,4]diazepin-8-one] | excellent activity
28 | 0.84 nM | – | CCn1nc(C(C)(C)C)c2c1C(=O)NCC(c1ccc(C#N)cc1)=N2 [Example 46, 4-(3-tert-Butyl-1-ethyl-8-oxo-1,6,7,8-tetrahydro-pyrazolo[4,3-e][1,4]diazepin-5-yl)benzonitrile] | excellent activity
29 | 4.9 nM | – | CCCn1nc(C2CCCCC2)c2c1C(=O)NCC(c1ccncc1)=N2 [Example 75, 3-Cyclohexyl-1-propyl-5-pyrid-4-yl-6,7-dihydro-1H-pyrazolo-[4,3-e][1,4]diazepin-8-one] | excellent activity
